Measurements: patent US7585895B2, “Therapeutic substituted cyclopentanes” (Allergan, Inc., priority 2005, dated 2009)

Experiments:
[1] = biological target: T1, hDP/Gqs5 (Homo sapiens, UniProt Q13258); test: FLIPR calcium signal, DP; format: cell-based; settings: HEK-293(EBNA)
T1 construct: expressed in transfected cells
T1 sequence (Q13258 1-359): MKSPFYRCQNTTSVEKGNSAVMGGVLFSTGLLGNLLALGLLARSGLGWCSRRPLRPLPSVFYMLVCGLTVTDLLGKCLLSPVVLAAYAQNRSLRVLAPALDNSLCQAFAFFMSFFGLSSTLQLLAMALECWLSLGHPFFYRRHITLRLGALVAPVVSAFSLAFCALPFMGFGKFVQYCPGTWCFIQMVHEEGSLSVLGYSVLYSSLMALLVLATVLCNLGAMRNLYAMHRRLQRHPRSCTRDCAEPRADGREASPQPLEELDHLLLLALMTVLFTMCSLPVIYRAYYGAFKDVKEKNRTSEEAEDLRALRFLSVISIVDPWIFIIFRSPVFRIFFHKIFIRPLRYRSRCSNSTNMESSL
Procedure: (§1) HEK-293(EBNA) cells, stably expressing one type or subtype of recombinant human prostaglandin receptors (prostaglandin receptors expressed: hDP/Gqs5; hEP1; hEP2/Gqs5; hEP3A/Gqi5; hEP4/Gqs5; hFP; hIP; hTP), were cultured in 100 mm culture dishes in high-glucose DMEM medium containing 10% fetal bovine serum, 2 mM 1-glutamine, 250 μg/ml geneticin (G418) and 200 μg/ml hygromycin B as selection markers, and 100 units/ml penicillin G, 100 μg/ml streptomycin and 0.25 μg/ml amphotericin B.
(§2) Cells were seeded at a density of 5×10^4 cells per well in Biocoat® Poly-D-lysine-coated black-wall, clear-bottom 96-well plates (Becton-Dickinson) and allowed to attach overnight in an incubator at 37° C. Cells were then washed two times with HBSS-HEPES buffer (Hanks Balanced Salt Solution without bicarbonate and phenol red, 20 mM HEPES, pH 7.4) using a Denley Cellwash plate washer (Labsystems). After 45 minutes of dye-loading in the dark, using the calcium-sensitive dye Fluo-4 AM at a final concentration of 2 μM, plates were washed four times with HBSS-HEPES buffer to remove excess dye leaving 100 μl in each well. Plates were re-equilibrated to 37° C. for a few minutes.
(§3) Cells were excited with an Argon laser at 488 nm, and emission was measured through a 510-570 nm bandwidth emission filter (FLIPR™, Molecular Devices, Sunnyvale, Calif.). Drug solution was added in a 50 μl volume to each well to give the desired final concentration. The peak increase in fluorescence intensity was recorded for each well. On each plate, four wells each served as negative (HBSS-HEPES buffer) and positive controls (standard agonists: BW245C (hDP); PGE2 (HEP1; hEP2/Gqs5; hEP3A/Gqi5; hEP4/Gqs5); PGF2α (hFP); carbacyclin (hIP); U-46619 (hTP), depending on receptor). The peak fluorescence change in each drug-containing well was then expressed relative to the controls.
(§4) Compounds were tested in a high-throughput (HTS) or concentration-response (CoRe) format. In the HTS format, forty-four compounds per plate were examined in duplicates at a concentration of 10^−5 M. To generate concentration-response curves, four compounds per plate were tested in duplicates in a concentration range between 10^−5 and 10^−11 M. The duplicate values were averaged. In either, HTS or CoRe format each compound was tested on at least 3 separate plates using cells from different passages to give an n≧3.

[2] = biological target: EP2 (Homo sapiens, UniProt P43116); test: Competition binding, [3H]PGE2, EP2 (Ki); set-up: expressed in transfected cells; membranes or whole cells; settings: HEK 293 cells stably expressing human EP2, [3H]PGE2
Procedure: Competition binding experiments were performed in a medium containing Hank's balanced salt solution, Hepes 20 mM, pH 7.3, membranes (˜60 μg protein) or 2×10^5 cells from HEK 293 cells stably expressing human EP2 receptors, [^3H]PGE2 (10 nM) and various concentrations of test compounds in a total volume of 300 μl. Reaction mixtures were incubated at 23° C. for 60 min, and were filtered over Whatman GF/B filters under vacuum. Filters were washed three times with 5 ml ice-cold buffer containing 50 mM Tris/HCl (pH 7.3). Non-specific binding was estimated in the presence of excess unlabeled PGE2 (10 μM). Binding data fitted to the binding model for a single class of binding sites, using nonlinear regression analysis. IC50 values thus obtained were converted to Ki using the equation of Ki=(IC50/(1+[L]/KD) where [L] represents PGE2 concentration (10 nM) and KD the dissociation constant for [^3H]PGE2 at human EP2 receptors (40 nM).
HEK-293 cells stably expressing the human or feline FP receptor, or EP1, EP2, or EP4 receptors were washed with TME buffer, scraped from the bottom of the flasks, and homogenized for 30 sec using a Brinkman PT 10/35 polytron. TME buffer was added to achieve a final 40 ml volume in the centrifuge tubes (the composition of TME is 100 mM TRIS base, 20 mM MgCl2, […]; 10N HCl is added to achieve a pH of 7.4).
The cell homogenate was centrifuged at 19000 r.p.m. for 20 min at 4° C using a Beckman Ti-60 rotor. The resultant pellet was resuspended in TME buffer to give a final 1 mg/ml protein concentration, as determined by Biorad assay. Radioligand binding competition assays vs. [^3H-]17-phenyl PGF2α. (5 nM) were performed in a 100 μl volume for 60 min. Binding reactions were started by adding plasma membrane fraction. The reaction was terminated by the addition of 4 ml ice-cold TRIS-HCl buffer and rapid filtration through glass fiber GF/B filters using a Brandel cell harvester. The filters were washed 3 times with ice-cold buffer and oven dried for one hour.
[^3H-] PGE2 (specific activity 180 Ci mmol) was used as the radioligand for EP receptors. [^3H] 17-phenyl PGF2α, was employed for FP receptor binding studies. Binding studies employing EP1, EP2, EP4 and FP receptors were performed in duplicate in at least three separate experiments. A 200 μl assay volume was used. Incubations were for 60 min at 25° C. and were terminated by the addition of 4 ml of ice-cold 50 mM TRIS-HCl, followed by rapid filtration through Whatman GF/B filters and three additional 4 ml washes in a cell harvester (Brandel). Competition studies were performed using a final concentration of 5 nM [^3H]-PGE2, or 5 nM [^3H] 17-phenyl PGF2αand non-specific binding determined with 10^−5M of unlabeled PGE2, or 17-phenyl PGF2α, according to receptor subtype studied.

[3] = biological target: T2, hIP (Homo sapiens, UniProt P43119); test: FLIPR calcium signal, IP; format: cell-based; settings: HEK-293(EBNA); for EC50: read-out: Ca2+ Signal-EC50 (nM) IP
T2 construct: expressed in transfected cells
Procedure: as §1, §2, §3, §4

EP2, sequence (P43116 whole entry): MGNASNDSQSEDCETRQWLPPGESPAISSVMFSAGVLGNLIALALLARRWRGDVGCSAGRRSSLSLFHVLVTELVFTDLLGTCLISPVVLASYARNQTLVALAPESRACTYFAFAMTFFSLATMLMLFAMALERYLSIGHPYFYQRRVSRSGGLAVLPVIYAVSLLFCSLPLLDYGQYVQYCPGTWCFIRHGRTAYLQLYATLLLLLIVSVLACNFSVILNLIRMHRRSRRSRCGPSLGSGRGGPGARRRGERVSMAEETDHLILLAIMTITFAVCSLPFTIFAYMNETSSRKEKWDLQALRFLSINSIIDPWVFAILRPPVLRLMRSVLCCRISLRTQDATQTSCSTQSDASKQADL
T2 sequence (P43119 whole entry): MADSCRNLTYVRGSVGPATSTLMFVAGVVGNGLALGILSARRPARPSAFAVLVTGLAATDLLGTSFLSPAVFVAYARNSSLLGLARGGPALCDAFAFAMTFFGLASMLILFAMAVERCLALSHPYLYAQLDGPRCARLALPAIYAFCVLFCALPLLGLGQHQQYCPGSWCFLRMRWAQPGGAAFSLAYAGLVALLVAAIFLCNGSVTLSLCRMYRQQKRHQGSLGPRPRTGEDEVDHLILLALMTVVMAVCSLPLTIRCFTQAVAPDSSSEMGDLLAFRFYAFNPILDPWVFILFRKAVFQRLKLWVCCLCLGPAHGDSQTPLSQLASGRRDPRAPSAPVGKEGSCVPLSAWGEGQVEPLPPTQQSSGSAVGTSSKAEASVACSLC

## CCCCCC(O)c1ccc([C@@H]2[C@@H](CCCc3ncc(C(=O)O)s3)[C@H](Cl)C[C@H]2O)cc1 (stereo partly drawn) [Entry 5, 2-(3-{(1R,2S,3R,5R)-5-Chloro-3-hydroxy-2-[4-(1-hydroxy-hexyl)-phenyl]-cyclopentyl}-propyl)-thiazole-5-carboxylic acid]
[1]
  Ca2+ Signal-EC50 (nM) DP: not active
[2]
  Ki: 6170 nM
[3]
  Ca2+ Signal-EC50 (nM) IP: not active

## CCCCCC(O)c1ccc([C@@H]2[C@@H](C/C=C\CCCC(=O)O)[C@@H](Cl)C[C@H]2O)cc1 (stereo partly drawn) [Entry 9, (Z)-7-{(1R,2S,3R,5S)-5-Chloro-3-hydroxy-2-[4-(1-hydroxy-hexyl)-phenyl]-cyclopentyl}-hept-5-enoic acid]
[1]
  Ca2+ Signal-EC50 (nM) DP: not active
[2]
  Ki: 3950 nM
[3]
  EC50: 6880 nM

## CCCCCC(O)c1ccc([C@@H]2[C@@H](CCCCCCC(=O)O)[C@H](Cl)C[C@H]2O)cc1 (stereo partly drawn) [Entry 14, 7-{(1R,2S,3R,5R)-5-Chloro-3-hydroxy-2-[4-(1-hydroxy-hexyl)-phenyl]-cyclopentyl}-heptanoic acid]
[1]
  Ca2+ Signal-EC50 (nM) DP: not active
[2]
  Ki: 287 nM
[3]
  Ca2+ Signal-EC50 (nM) IP: not active

## O=C(O)CCC/C=C\C[C@@H]1[C@@H](c2ccc(C(O)CCC3CCCCC3)cc2)[C@H](O)C[C@H]1Cl (stereo partly drawn) [Entry 15, (Z)-7-{(1R,2S,3R,5R)-5-Chloro-2-[4-(3-cyclohexyl-1-hydroxy-propyl)-phenyl]-3-hydroxy-cyclopentyl}-hept-5-enoic acid]
[1]
  Ca2+ Signal-EC50 (nM) DP: not active
[2]
  Ki: 260 nM
[3]
  Ca2+ Signal-EC50 (nM) IP: not active

## O=C(O)CCCCCC[C@@H]1[C@@H](c2ccc(C(O)CCC3CCCCC3)cc2)[C@H](O)C[C@H]1Cl (stereo partly drawn) [Entry 16, 7-{(1R,2S,3R,5R)-5-Chloro-2-[4-(3-cyclohexyl-1-hydroxy-propyl)-phenyl]-3-hydroxy-cyclopentyl}-heptanoic acid]
[1]
  Ca2+ Signal-EC50 (nM) DP: not active
[2]
  Ki: 1290 nM
[3]
  Ca2+ Signal-EC50 (nM) IP: not active

## O=C(O)CCCCCC[C@@H]1[C@@H](c2ccc(C(O)CC3CCCCC3)cc2)[C@H](O)C[C@H]1Cl (stereo partly drawn) [Entry 18, 7-{(1R,2S,3R,5R)-5-Chloro-2-[4-(2-cyclohexyl-1-hydroxy-ethyl)-phenyl]-3-hydroxy-cyclopentyl}-heptanoic acid]
[1]
  Ca2+ Signal-EC50 (nM) DP: not active
[2]
  Ki: 2290 nM
[3]
  Ca2+ Signal-EC50 (nM) IP: not active

## O=C(O)CCCCCC[C@@H]1[C@@H](c2ccc(C(O)Cc3ccccc3)cc2)[C@H](O)C[C@H]1Cl (stereo partly drawn) [Entry 22, 7-{(1 R,2S,3R,5R)-5-Chloro-3-hydroxy-2-[4-(1-hydroxy-2-phenyl-ethyl)-phenyl]-cyclopentyl}-heptanoic acid]
[1]
  Ca2+ Signal-EC50 (nM) DP: not active
[2]
  Ki: 148 nM
[3]
  Ca2+ Signal-EC50 (nM) IP: not active

## O=C(O)CCC/C=C\C[C@@H]1[C@@H](c2ccc(C(O)CCc3ccccc3)cc2)[C@H](O)C[C@H]1Cl (stereo partly drawn) [Entry 23, (Z)-7-{(1R,2S,3R,5R)-5-Chloro-3-hydroxy-2-[4-(1-hydroxy-3-phenyl-propyl)-phenyl]-cyclopentyl}-hept-5-enoic acid]
[1]
  Ca2+ Signal-EC50 (nM) DP: not active
[2]
  Ki: 1130 nM
[3]
  Ca2+ Signal-EC50 (nM) IP: not active

## O=C(O)CCCCCC[C@@H]1[C@@H](c2ccc(C(O)CCc3ccccc3)cc2)[C@H](O)C[C@H]1Cl (stereo partly drawn) [Entry 24, 7-{(1R,2S,3R,5R)-5-Chloro-3-hydroxy-2-[4-(1-hydroxy-3-phenyl-propyl)-phenyl]-cyclopentyl}-heptanoic acid]
[1]
  Ca2+ Signal-EC50 (nM) DP: not active
[2]
  Ki: 2160 nM
[3]
  Ca2+ Signal-EC50 (nM) IP: not active

## CCCCCCC(O)c1ccc([C@@H]2[C@@H](C/C=C\CCCC(=O)O)[C@H](Cl)C[C@H]2O)cc1 (stereo partly drawn) [Entry 25, (Z)-7-{(1R,2S,3R,5R)-5-Chloro-3-hydroxy-2-[4-(1-hydroxy-heptyl)-phenyl]-cyclopentyl}-hept-5-enoic acid]
[1]
  Ca2+ Signal-EC50 (nM) DP: not active
[2]
  Ki: 278 nM
[3]
  Ca2+ Signal-EC50 (nM) IP: not active

## CCCC(O)c1ccc([C@@H]2[C@@H](C/C=C\CCCC(=O)O)[C@H](Cl)C[C@H]2O)cc1 (stereo partly drawn) [Entry 26, (Z)-7-{(1R,2S,3R,5R)-5-Chloro-3-hydroxy-2-[4-(1-hydroxy-butyl)-phenyl]-cyclopentyl}-hept-5-enoic acid]
[1]
  Ca2+ Signal-EC50 (nM) DP: not active
[2]
  Ki: 1660 nM
[3]
  Ca2+ Signal-EC50 (nM) IP: not active

## CCCCCC(O)c1cccc([C@@H]2[C@@H](C/C=C\CCCC(=O)O)[C@H](Cl)C[C@H]2O)c1 (stereo partly drawn) [Entry 29, (Z)-7-{(1R,2S,3R,5R)-5-Chloro-3-hydroxy-2-[3-(1-hydroxy-hexyl)-phenyl]-cyclopentyl}-hept-5-enoic acid]
[1]
  Ca2+ Signal-EC50 (nM) DP: not active
[2]
  Ki: 1390 nM
[3]
  EC50: 8490 nM

## CCCCC(O)c1cccc([C@@H]2[C@@H](C/C=C\CCCC(=O)O)[C@H](Cl)C[C@H]2O)c1 (stereo partly drawn) [Entry 30, (Z)-7-{(1R,2S,3R,5R)-5-Chloro-3-hydroxy-2-[3-(1-hydroxy-pentyl)-phenyl]-cyclopentyl}-hept-5-enoic acid]
[1]
  Ca2+ Signal-EC50 (nM) DP: not active
[2]
  Ki: 1260 nM
[3]
  EC50: 2060 nM
